Assay results taken from publication PMC8957230 (ADMET & DMPK, 2019).
Values after ≈ are worked out from the molar mass of the structure shown. Like-named read-outs stand apart in the source and are kept apart here. Marks after values point to notes of the source that are not given here.

What was measured:
[1] = cited from earlier work
[2] = cited from earlier work; remark: listed apart in the source
[3] = Ketoconazole solubility by pH adjustment with HCl (pH-solubility profile); format: physicochemical; details: 25 °C
Protocol: Multiple vials were prepared using different concentration of HCl solutions (0.001M to 1M) so that different pH values could be attained, and, when needed, more amount of free base was added to maintain excess solid in the vials. […] Additional HCl solution and excess ketoconazole were added to the suspension in vial and shaken for another pH point, and the process was repeated until enough points on the pH scale were obtained. More than one suspension in different vials were used to generate a complete profile.

[4] = Solubility in buffered/non-buffered media
Protocol: Cocrystal solubilities were determined at pH 1 solution (0.1 M HCl), pH 2 HCl buffer), pH 5 acetate buffer and pH 8 phosphate buffer. Buffers were prepared according to the United States Pharmacopeia (USP) procedures. […] Aliquots were filtered by 0.45-micron PVDF filter and analyzed by HPLC. The solid phase was analyzed by Raman spectroscopy.

[5] = Ketoconazole solubility with fumaric/succinic acid and 1:1 physical mixtures with coformers; format: physicochemical; details: 1:1 ketoconazole-fumaric acid mixture, 25 °C
Protocol: A series of solutions with different concentrations of acids were prepared and 3 mL quantities of these solutions were distributed in separate glass vials. […] Aliquots of suspensions (0.5-0.7 mL each) were, however, withdrawn from each vial after 4, 24 and 96 h of shaking for analysis of drug concentration by HPLC according to the method described earlier. For the analysis of solid phase, contents of the vials were transferred to 3-mL Eppendorf tubes and centrifuged using Beckman GS 6R centrifuge at 2000 RPM for 5 min. After centrifugation, the supernatants were removed and solid contents were dried in a vacuum oven at 50 °C, which were then analyzed by DSC and Raman spectroscopy.
In this study, different quantities of the mixtures (12 mg to 350 mg) were added to different 20 mL glass vials, and then 5 mL of water was added to each vial. Thus, the volume of water in each vial remained the same and only the amount of material added differed. […] Samples were withdrawn from each vial at 4, 24 and 96 h to measure drug concentration, as described earlier. The solid phase of the vials was analyzed using Raman spectroscopy to determine the identity of equilibrium species. From some of the vials, solid contents were separated by centrifugation, dried in a vacuum oven, and then analyzed by DSC.

[6] = Intrinsic dissolution rate; format: physicochemical; parameters: key: -: Extremely low dissolution rate (practically zero) that could not be calculated with accuracy; details: 25 °C
Protocol: For each determination, 100 mg of powder was compressed into pellet by Carver press at 1 ton pressure for 10 seconds. The apparatus with the exposed surface of the material was immersed into 250 mL of dissolution medium and rotated at 200 RPM. pH of dissolution media during the intrinsic dissolution testing were maintained by two different methods: in one case, unbuffered media were used where either 0.1 M HCl or 0.1 M NaOH were added to keep pH constant at 3, 4 or 5 (±0.15), and in the second case, pH 3, 4 and 5 phthalate buffers prepared according to the USP were used as dissolution media to keep pH constant. Two mL of aliquot was withdrawn at each of 5, 15, 30, 60, 90 and 120 min time points, filtered by 0.45-micron PVDF filter, and analyzed by HPLC for drug concentration.

[7] = average of two
Protocol: Essentially, in the present investigation, about 0.5 mL of buffer was added to 200 mg of powder in a small vial and mixed by vortexing, and then pH was recorded when an equilibrium was reached after 5-10 min of mixing.

[8] = parameters: method as in earlier work; details: 5 mM sodium taurocholate and […] lecithin in pH 6.8 phosphate buffer; cited from earlier work
[9] = excess cocrystal in water, 25 °C
[10] = initial pH 1.1 (0.1 M HCl), 25 °C
[11] = initial pH 2.1 HCl/KCl buffer, 25 °C
[12] = initial pH 5.0 acetate buffer, 25 °C
[13] = initial pH 7.9 phosphate buffer, 25 °C
[14] = buffers, pH 3 phthalate, 0.5 cm^2
[15] = buffers, pH 4 phthalate, 0.5 cm^2
[16] = unbuffered media, pH 3 kept constant with HCl or NaOH, 0.5 cm^2
[17] = unbuffered media, pH 4 kept constant with HCl or NaOH, 0.5 cm^2
[18] = pH 3 phthalate buffer, initial (bulk) pH 2.93
[19] = pH 5 neutralized phthalate buffer, initial (bulk) pH 4.97
[20] = pH 7 phosphate buffer, initial (bulk) pH 6.97

In the case of `CC(=O)N1CCN(c2ccc(OC[C@H]3CO[C@](Cn4ccnc4)(c4ccc(Cl)cc4Cl)O3)cc2)CC1.Cl.Cl` [ketoconazole dihydrochloride salt, ketoconazole dihydrochloride], the “Solubility (in words)” value [1] is listed as “very high solubility”.

In the case of `O=C(O)CCC(=O)O` [succinic acid], the “pKa, first ionization” value [2] is listed as 3.93 and the “pKa, second ionization” value [2] is listed as 5.30.

In the case of `Nc1nnc(-c2cccc(Cl)c2Cl)c(N)n1` [lamotrigine], the Solubility in water [1] is listed as 154 µg/mL, the “pH of the aqueous slurries during the determination of solubility” value [1] is listed as 6.8 and the Solubility in water ([1]; pH of ~5.5, cocrystals at 1:1 ratios) is listed as 280 µg/mL.

For `CC(=O)N1CCN(c2ccc(OCC3COC(Cn4ccnc4)(c4ccc(Cl)cc4Cl)O3)cc2)CC1` (stereo not shown) [ketoconazole], the solubility ([3]; pH of suspension 3.35, pH lowered using HCl, listed as ketoconazole base) was 5429 µg/mL (≈ 10200 µM), the solubility ([3]; suspension in distilled water, pH adjusted with HCl, pH 3.1, aqueous buffer, thermodynamic from solid, pH 3.1, pH adjusted with HCl, read-out: Highest solubility measured) was 148000 µg/mL (≈ 279000 µM) and the solubility ([3]; suspension in distilled water, pH adjusted with HCl, pH 3.1, aqueous buffer, thermodynamic from solid, pH of suspension 3.1, pH lowered using HCl, read-out: Solubility) was 148000 µg/mL (≈ 279000 µM). It also gave a solubility ([3]; suspension in distilled water, pH adjusted with HCl, pH 3.35, aqueous buffer, thermodynamic from solid, pH of suspension 3.35, pH lowered using HCl, read-out: Solubility) of 5460 µg/mL (≈ 10300 µM), a solubility ([3]; suspension in distilled water, pH adjusted with HCl, pH 3.37, aqueous buffer, thermodynamic from solid, pH of suspension 3.37, pH lowered using HCl, read-out: Solubility) of 7100 µg/mL (≈ 13400 µM) and a solubility ([3]; suspension in distilled water, pH adjusted with HCl, pH 3.58, aqueous buffer, thermodynamic from solid, pH of suspension 3.58, pH lowered using HCl, read-out: Solubility) of 3420 µg/mL (≈ 6440 µM). The solubility ([3]; suspension in distilled water, pH adjusted with HCl, pH 3.81, aqueous buffer, thermodynamic from solid, pH of suspension 3.81, pH lowered using HCl, read-out: Solubility) was 1930 µg/mL (≈ 3630 µM), the solubility ([3]; suspension in distilled water, pH adjusted with HCl, pH 4.28, aqueous buffer, thermodynamic from solid, pH of suspension 4.28, pH lowered using HCl, read-out: Solubility) was 729 µg/mL (≈ 1370 µM) and the solubility ([3]; suspension in distilled water, pH adjusted with HCl, pH 4.48, aqueous buffer, thermodynamic from solid, pH of suspension 4.48, pH lowered using HCl, read-out: Solubility) was 345 µg/mL (≈ 649 µM). It also gave a solubility ([3]; suspension in distilled water, pH adjusted with HCl, pH 4.56, aqueous buffer, thermodynamic from solid, pH of suspension 4.56, pH lowered using HCl, read-out: Solubility) of 354 µg/mL (≈ 666 µM), a solubility ([3]; suspension in distilled water, pH adjusted with HCl, pH 4.95, aqueous buffer, thermodynamic from solid, pH of suspension 4.95, pH lowered using HCl, read-out: Solubility) of 178 µg/mL (≈ 335 µM) and a solubility ([3]; suspension in distilled water, pH adjusted with HCl, pH 4.99, aqueous buffer, thermodynamic from solid, pH of suspension 4.99, pH lowered using HCl, read-out: Solubility) of 175 µg/mL (≈ 329 µM). It also gave a solubility ([3]; suspension in distilled water, pH adjusted with HCl, pH 7.12, aqueous buffer, thermodynamic from solid, pH of suspension 7.12, pH lowered using HCl, read-out: Solubility) of 5 µg/mL (≈ 9.41 µM), a solubility ([3]; suspension in distilled water, pH adjusted with HCl, pH 7.23, aqueous buffer, thermodynamic from solid, pH of suspension 7.23, pH lowered using HCl, read-out: Solubility) of 4 µg/mL (≈ 7.53 µM) and a solubility ([3]; suspension in distilled water, pH adjusted with HCl, pH 3.67, pH of suspension 3.67, pH lowered using HCl, read-out: Solubility) of 3030 µg/mL (≈ 5700 µM). The solubility ([3]; suspension in distilled water, pH adjusted with HCl, pH 3.71, pH of suspension 3.71, pH lowered using HCl, read-out: Solubility) was 2780 µg/mL (≈ 5230 µM), the solubility ([3]; suspension in distilled water, pH adjusted with HCl, pH 7.27, pH of suspension 7.27, pH lowered using HCl, read-out: Solubility) was 3 µg/mL (≈ 5.65 µM) and the solubility ([3]; suspension in distilled water, pH adjusted with HCl, pH 7.72, pH of suspension 7.72, pH lowered using HCl, read-out: Solubility) was 2 µg/mL (≈ 3.76 µM). It also gave a solubility ([3]; suspension in distilled water, pH adjusted with HCl, pH 7.92, pH of suspension 7.92, pH lowered using HCl, read-out: Solubility) of 3 µg/mL (≈ 5.65 µM), a solubility ([3]; suspension in distilled water, pH adjusted with HCl, pH 8.49, pH of suspension 8.49, pH lowered using HCl, read-out: Solubility) of 2 µg/mL (≈ 3.76 µM) and a solubility ([3]; suspension in distilled water, pH adjusted with HCl, pH higher than 8, read-out: Intrinsic solubility of the free base (nonprotonated species)) of ~2 µg/mL (≈ 3.76 µM). The solubility ([4]; 0.1 M HCl, 25 °C, pH 1.1, simulated gastric fluid, thermodynamic from solid) was ~27000 µg/mL (≈ 50800 µM), the solubility ([4]; HCl/KCl buffer, 25 °C, pH 2.1, simulated gastric fluid, thermodynamic from solid) was ~3400 µg/mL (≈ 6400 µM) and the solubility ([4]; acetate buffer, 25 °C, pH 5, aqueous buffer, thermodynamic from solid) was 130 µg/mL (≈ 245 µM). For the same compound, the pH after equilibration [4, 10] was ~2.9 ^*, the pH after equilibration [4, 11] was ~3.6 ^* and the pH after equilibration [4, 12] was 4.95. It also gave a pH after equilibration [4, 13] of 7.82±0.01, a solubility ([4]; phosphate buffer, pH 7.9) of 1 µg/mL (≈ 1.88 µM) and a solubility at 96 h ([5]; equilibrated 96 h, pH~3.7) of ~3000 µg/mL (≈ 5650 µM). For the same compound, the solubility at 4 h ([5]; water, thermodynamic from solid, equilibrated 4 h, no conversion to cocrystal) was ~7000 µg/mL (≈ 13200 µM), the Dissolution rate constant [6, 14] was 108 μg.min^-1.cm^-2 and the Dissolution rate constant [6, 15] was 45 μg.min^-1.cm^-2. For the same compound, the “Dissolution rate constant” value ([6]; buffers, pH 5 phthalate) was “- ^**”, the Dissolution rate constant [6, 16] was 106 μg.min^-1.cm^-2 and the Dissolution rate constant [6, 17] was 16 μg.min^-1.cm^-2. The “Dissolution rate constant” value ([6]; unbuffered media, pH 5 kept constant with HCl or NaOH) was “- ^**”, the “pH h=0 (slurry pH)” value [7, 18] was 4.17 and the “pH h=0 (slurry pH)” value [7, 19] was 5.00. The “pH h=0 (slurry pH)” value [7, 20] was 7.05.

In the case of `CCOc1ccccc1C(N)=O` [ethenzamide], the Solubility in water [1] is listed as 0.80 to 0.85 µg/mL.

In the case of `CC(=O)Nc1nc2c(Oc3cc(-c4ccc(C(F)(F)F)cc4)ncn3)cccc2s1` [AMG 517], the pKa [2] is given as 0.68 and the “Solubility in FaSIF” value [8] is given as 5 µg/mL (≈ 11.6 µM).

In the case of `CC(C)(C)C(=O)OCOP(=O)(COCCn1cnc2c(N)ncnc21)OCOC(=O)C(C)(C)C` [adefovir dipivoxil], the Solubility in water [1] is given as 790 µM and the “pH of saturated solutions” value [1] is given as 6.7.

For `O=C(O)/C=C/C(=O)O` [fumaric acid], the “pKa, first ionization” value [2] is given as 2.74 and the “pKa, second ionization” value [2] is given as 4.17.

ketoconazole-fumaric acid cocrystal gave a pH after equilibration [4, 10] of 2.03± 0.01, a solubility ([4]; initial pH 1.1 (0.1 M HCl), 25 °C, average of three determinations) of 21540 ± 550 µg/mL and a pH after equilibration [4, 11] of 2.89 ± 0.02. It also gave a solubility ([4]; initial pH 2.1 HCl/KCl buffer, 25 °C, average of three determinations) of 3390 ± 20 µg/mL, a pH after equilibration [4, 12] of 4.31 ± 0.02 and a solubility ([4]; initial pH 5.0 acetate buffer, 25 °C, average of three determinations) of 600 ± 20 µg/mL. The pH after equilibration [4, 13] was 7.17 ± 0.01, the solubility ([4]; initial pH 7.9 phosphate buffer, 25 °C, average of three determinations) was 3 ± 2 µg/mL and the Dissolution rate constant [6, 14] was 108 μg.min^-1.cm^-2. It also gave a Dissolution rate constant [6, 15] of 71 μg.min^-1.cm^-2, a Dissolution rate constant ([6]; buffers, pH 5 phthalate, 0.5 cm^2) of 51 μg.min^-1.cm^-2 and a Dissolution rate constant [6, 16] of 164 μg.min^-1.cm^-2. For the same compound, the Dissolution rate constant [6, 17] was 124 μg.min^-1.cm^-2, the Dissolution rate constant ([6]; unbuffered media, pH 5 kept constant with HCl or NaOH, 0.5 cm^2) was 93 μg.min^-1.cm^-2 and the “pH of saturated solution in water” value [9] was 4.1. The “Solubility in water (as ketoconazole equivalents)” value ([9]; saturated solution pH 4.1 (fumaric) / 4.2 (succinic)) was 2600 µg/mL, the “pH h=0 (slurry pH)” value [7, 18] was 3.13 and the “pH h=0 (slurry pH)” value ([7]; pH 4 phthalate buffer, initial (bulk) pH 3.96) was 4.08. For the same compound, the “pH h=0 (slurry pH)” value [7, 19] was 4.23 and the “pH h=0 (slurry pH)” value [7, 20] was 4.53.
